From US20180153870A1, “BIPERIDEN FOR TREATING CANCER” (Universitätsklinikum Hamburg-Eppendorf, priority 2015, published 2018)

Legend:
Assay type in all cases: cell-based, human
[1] = test system: HPDE; assay: cleaved caspase 3 sandwich ELISA (apoptosis), HPDE; conditions: 29.6 μg/ml biperiden
Method: (§1) To determine the effect of biperiden, mepazine and combinations of the two active ingredients on apoptosis in cell lines, a “cleaved caspase 3” sandwich ELISA was used. The pancreatic cancer cell lines L3.6pl res, L3.6pl wt, Panc-1, Panc-2 and the reference cell line HPDE were treated with 29.6 μg/ml biperiden or 25 μM mepazine or 15 μM mepazine+3.7 μg/ml biperiden or only with vehicle (DMSO). The cleaved caspase 3 was measured 24, 48 and 72 hours after incubation. The apoptosis within the cells was measured using a PathScan “cleaved caspase 3” sandwich ELISA (Cell Signaling, #7190C) according to the manufacturers instructions. Each experiment was carried out at least 3 times in duplicate.

[2] = test system: L3.6pl res; assay: cleaved caspase 3 sandwich ELISA (apoptosis), L3.6pl res; conditions: 29.6 μg/ml biperiden
Method: as §1

[3] = test system: L3.6pl wt; assay: cleaved caspase 3 sandwich ELISA (apoptosis), L3.6pl wt; conditions: 29.6 μg/ml biperiden
Method: as §1

[4] = test system: L3.6pl wt; assay: MTT proliferation assay, L3.6pl wt
Method: (§2) The cell lines used for the proliferation assays were cultured in different media. The cell lines Pan-1, Panc-2 and BxPC3, which have been derived from the human ductal pancreatic adenocarcinoma (PDAC), were cultured in Dulbecco's modified Eagle medium (DMEM) (Sigma), that was supplemented with 1% penicillin/streptomycin (Life technologies/GIBCO 15140-122) and 10% fetal bovine serum (Life technologies/GIBCO 100500-064). The cell line L3.6pl was cultured in RPMI 1640 medium (Life technologies/GIBCO 72400-21) that was supplemented with 1% penicillin/streptomycin and 10% fetal bovine serum. […]
(§3) The proliferation rates of the cell lines were determined after stimulation with (i) biperiden, (ii) mepazine, and (iii) stimulation with both active ingredients. […] Next morning, the blanket values were measured at 490 nm in an ELISA reader (FLUOstar Omega, BMG LABTECH) after the addition of 100 μL medium and 20 μL MTT substrate (CellTiter 96 AQueous One Solution Cell Proliferation Assay, Promega). […] The ex-tinction was measured every 24 hours during a period of 72 hours.
(§4) The normal distribution of the results was analyzed by Kolgomorov-Smirnov test and Shapiro-Wilk test. Non-parametric variables were analyzed using the Mann-Whitney-U test. […]

[5] = test system: Panc-2; assay: cleaved caspase 3 sandwich ELISA (apoptosis), Panc-2; conditions: 29.6 μg/ml biperiden
Method: as §1

[6] = test system: BxPC3; assay: cleaved caspase 3 sandwich ELISA (apoptosis), BxPC3; conditions: 29.6 μg/ml biperiden
Method: [The procedure below names another cell line; the source lists this cell line under the same test.] as §1

[7] = test system: Panc-1; assay: cleaved caspase 3 sandwich ELISA (apoptosis), Panc-1; conditions: 29.6 μg/ml biperiden, after 24 hours
Method: as §1

[8] = test system: tested cell lines (L3.6pl res, L3.6pl wt, Panc-1, Panc-2, BxPC3, HPDE); assay: cleaved caspase 3 sandwich ELISA (apoptosis), all tested cell lines; conditions: 29.6 μg/ml biperiden
Method: To determine the effect of biperiden, mepazine and combinations of the two active ingredients on apoptosis in cell lines, a “cleaved caspase 3” sandwich ELISA was used. […] The cleaved caspase 3 was measured 24, 48 and 72 hours after incubation. The apoptosis within the cells was measured using a PathScan “cleaved caspase 3” sandwich ELISA (Cell Signaling, #7190C) according to the manufacturers instructions. Each experiment was carried out at least 3 times in duplicate.

[9] = test system: Panc-1; assay: MTT proliferation assay, Panc-1
Method: as §2, §3, §4

OC(CCN1CCCCC1)(c1ccccc1)C1CC2C=CC1C2 (stereo not shown) [biperiden]
cleaved caspase 3 ([1]; after 48 hours): 265.3±27.8 RLU
increase of apoptosis rate compared to vehicle ([1]; after 48 hours, p=0.037): 132%
cleaved caspase 3 ([1]; after 72 hours): 368.4±33.5 RLU
increase of apoptosis rate compared to vehicle ([1]; after 72 hours, p=0.002): 283.9%
cleaved caspase 3 ([2]; after 24 hours): 770.0±72.5 RLU
increase of apoptosis rate compared to vehicle ([2]; after 24 hours, p=0.008): 274%
cleaved caspase 3 ([2]; after 48 hours): 848.1±45.7 RLU
increase of apoptosis rate compared to vehicle ([2]; after 48 hours, p=0.003): 273.8%
cleaved caspase 3 ([2]; after 72 hours): 633.3±55.7 RLU
increase of apoptosis rate compared to vehicle ([2]; after 72 hours, p=0.021): 204.0%
cleaved caspase 3 ([3]; after 24 hours): 443.4±18.1 RLU
increase of apoptosis rate compared to vehicle ([3]; after 24 hours, p<0.001): 210.4%
cleaved caspase 3 ([3]; after 48 hours): 386.2±15.9 RLU
increase of apoptosis rate compared to vehicle ([3]; after 48 hours, p=0.028): 83.5%
reduction in the proliferation rate ([4]; 29.7 μg/ml biperiden, p=0.02): 96.4%
cleaved caspase 3 ([5]; after 24 hours): 360.0±11.0 RLU
increase of apoptosis rate compared to vehicle ([5]; after 24 hours, p=0.029): 109.1%
cleaved caspase 3 ([5]; after 48 hours): 306.0±74.8 RLU
increase of apoptosis rate compared to vehicle ([5]; after 48 hours, p=0.047): 65.3%
cleaved caspase 3 ([6]; after 24 hours): 813.1±37.7 RLU
increase of apoptosis rate compared to vehicle ([6]; after 24 hours, p=0.002): 369.8%
cleaved caspase 3 ([6]; after 48 hours): 1046.1 ± 34.7 RLU
increase of apoptosis rate compared to vehicle ([6]; after 48 hours, p=0.004): 357.5%
cleaved caspase 3 ([6]; after 72 hours): 862.8 ± 85.2 RLU
increase of apoptosis rate compared to vehicle ([6]; after 72 hours, p=0.032): 230.9%
cleaved caspase 3 [7]: 325.1±48.3 RLU
increase of apoptosis rate compared to vehicle ([7]; p=0.049): 125.3%
apoptosis [8]: increased apoptosis was observed in all cell lines

CN1CCCC(CN2c3ccccc3Sc3ccccc32)C1 (stereo not shown) [mepazine]
reduction of proliferation ([9]; 15 μM mepazine, p=0.005): 97.7%
proliferation ([9]; 25 μM mepazine, p=0.004): completely stopped
reduction in the proliferation rate ([4]; 25 μM mepazine, p=0.004): 97.9%
